From PubChem BioAssay AID216 (DTP/NCI, 2004)
Where “and” joins values, the source holds several entries; their conditions need not be identical. Equal entries are not always repeated. Toxic doses and inconclusive results are not listed.

System: BDF1 mice, P288 leukemia ip, survival T/C
Experiment: NCI In Vivo Anticancer Drug Screen. Data for tumor model P288 Lymphocytic Leukemia (intraperitoneal) in B6D2F1 (BDF1) mice
Settings: higher = longer survival
Protocol: The antitumor activity of compounds was measured in mice bearing transplantable tumors. Survival or tumor size were measured and the results are expressed as the measurement made in the treated group (T) divided by the measurement made in the vehicle treated control group (C). The tumor model used in this assay is P288 Lymphocytic Leukemia (intraperitoneal) in B6D2F1 (BDF1) mice

[1] = endpoint: survival time, mean or median, dose: 2.0 mg/kg/injection, schedule: Q01DX010 (ip), vehicle: saline
[2] = endpoint: survival time, mean or median, dose: 4.0 mg/kg/injection, schedule: Q01DX010 (ip), vehicle: saline
[3] = endpoint: survival time, mean or median, dose: 16.0 mg/kg/injection, schedule: Q01DX010 (ip), vehicle: saline
[4] = endpoint: survival time, mean or median, dose: 5.0 mg/kg/injection, schedule: Q01DX Z (ip), vehicle: carboxymethylcellulose (CMC)
[5] = endpoint: survival time, mean or median, dose: 10.0 mg/kg/injection, schedule: Q01DX Z (ip), vehicle: carboxymethylcellulose (CMC)
[6] = endpoint: survival time, mean or median, dose: 125.0 mg/kg/injection, schedule: Q01DX Z (ip), vehicle: carboxymethylcellulose (CMC)

## N=C(N)c1ccc(Nc2ccc(C(=N)N)cc2)cc1
endpoint: survival time, mean or median, dose: 1.6 mg/kg/injection, schedule: Q01DX Z (ip), vehicle: methylcellulose (MC)
  T/C: 86 % of control
endpoint: survival time, mean or median, dose: 3.0 mg/kg/injection, schedule: Q01DX010 (ip), vehicle: saline
  T/C: 100 % of control
endpoint: survival time, mean or median, dose: 6.0 mg/kg/injection, schedule: Q01DX010 (ip), vehicle: saline
  T/C: 106 % of control
endpoint: survival time, mean or median, dose: 6.25 mg/kg/injection, schedule: Q01DX Z (ip), vehicle: methylcellulose (MC)
  T/C: 88 % of control
endpoint: survival time, mean or median, dose: 6.3 mg/kg/injection, schedule: Q01DX Z (ip), vehicle: methylcellulose (MC)
  T/C: 90 % of control
endpoint: survival time, mean or median, dose: 12.0 mg/kg/injection, schedule: Q01DX010 (ip), vehicle: saline
  T/C: 100 % of control
endpoint: survival time, mean or median, dose: 12.5 mg/kg/injection, schedule: Q01DX Z (ip), vehicle: methylcellulose (MC)
  T/C: 115 % of control
endpoint: survival time, mean or median, dose: 24.0 mg/kg/injection, schedule: Q01DX010 (ip), vehicle: saline
  T/C: 87 % of control
endpoint: survival time, mean or median, dose: 25.0 mg/kg/injection, schedule: Q01DX Z (ip), vehicle: methylcellulose (MC)
  T/C: 87 % of control

## Nc1nc(=S)c2ncn(C3OC(CO)C(O)C3O)c2[nH]1 (stereo not drawn)
endpoint: survival time, mean or median, dose: 1.0 mg/kg/injection, schedule: Q01DX010 (ip), vehicle: saline
  T/C: 105 % of control
[1]
  T/C: 115 % of control
[2]
  T/C: 118 % of control and 120 % of control
endpoint: survival time, mean or median, dose: 8.0 mg/kg/injection, schedule: Q01DX010 (ip), vehicle: saline
  T/C: 112 % of control and 95 % of control
[3]
  T/C: 106 % of control
endpoint: survival time, mean or median, dose: 5.0 micrograms/kg/injection, schedule: Q01DX Z (ip), vehicle: carboxymethylcellulose (CMC)
  T/C: 105 % of control
endpoint: survival time, mean or median, dose: 10.0 micrograms/kg/injection, schedule: Q01DX Z (ip), vehicle: carboxymethylcellulose (CMC)
  T/C: 96 % of control
endpoint: survival time, mean or median, dose: 20.0 micrograms/kg/injection, schedule: Q01DX Z (ip), vehicle: carboxymethylcellulose (CMC)
  T/C: 94 % of control

## CS(=O)(=O)OCCCCOS(C)(=O)=O
endpoint: survival time, mean or median, dose: 6.25 mg/kg/injection, schedule: Q01DX010 (ip), vehicle: saline
  T/C: 110 % of control
endpoint: survival time, mean or median, dose: 12.5 mg/kg/injection, schedule: Q01DX010 (ip), vehicle: saline
  T/C: 105 % of control and 115 % of control
endpoint: survival time, mean or median, dose: 25.0 mg/kg/injection, schedule: Q01DX010 (ip), vehicle: saline
  T/C: 105 % of control and 110 % of control
endpoint: survival time, mean or median, dose: 50.0 mg/kg/injection, schedule: Q01DX010 (ip), vehicle: saline
  T/C: 121 % of control and 100 % of control

## O=c1cn[nH]c(=O)[nH]1
[4]
  T/C: 113 % of control
[5]
  T/C: 101 % of control
endpoint: survival time, mean or median, dose: 20.0 mg/kg/injection, schedule: Q01DX Z (ip), vehicle: carboxymethylcellulose (CMC)
  T/C: 113 % of control
[6]
  T/C: 104 % of control
endpoint: survival time, mean or median, dose: 250.0 mg/kg/injection, schedule: Q01DX Z (ip), vehicle: carboxymethylcellulose (CMC)
  T/C: 108 % of control and 93 % of control
endpoint: survival time, mean or median, dose: 500.0 mg/kg/injection, schedule: Q01DX Z (ip), vehicle: carboxymethylcellulose (CMC)
  T/C: 106 % of control
endpoint: survival time, mean or median, dose: 1000.0 mg/kg/injection, schedule: Q01DX Z (ip), vehicle: carboxymethylcellulose (CMC)
  T/C: 118 % of control

## CCN(CC)C(=S)S
endpoint: survival time, mean or median, dose: 125.0 mg/kg/injection, schedule: Q01DX Z (ip), vehicle: other
  T/C: 97 % of control
endpoint: survival time, mean or median, dose: 250.0 mg/kg/injection, schedule: Q01DX Z (ip), vehicle: other
  T/C: 112 % of control
endpoint: survival time, mean or median, dose: 500.0 mg/kg/injection, schedule: Q01DX Z (ip), vehicle: other
  T/C: 104 % of control
endpoint: survival time, mean or median, dose: 1000.0 mg/kg/injection, schedule: Q01DX Z (ip), vehicle: other
  T/C: 104 % of control

## CS(=O)(=O)OCC(O)C(O)COS(C)(=O)=O (stereo not drawn)
endpoint: survival time, mean or median, dose: 94.0 mg/kg/injection, schedule: Q01DX Z (ip), vehicle: saline
  T/C: 111 % of control
endpoint: survival time, mean or median, dose: 100.0 mg/kg/injection, schedule: Q01DX010 (ip), vehicle: saline
  T/C: 105 % of control
endpoint: survival time, mean or median, dose: 187.5 mg/kg/injection, schedule: Q01DX Z (ip), vehicle: saline
  T/C: 105 % of control
endpoint: survival time, mean or median, dose: 200.0 mg/kg/injection, schedule: Q01DX010 (ip), vehicle: saline
  T/C: 94 % of control
endpoint: survival time, mean or median, dose: 375.0 mg/kg/injection, schedule: Q01DX Z (ip), vehicle: saline
  T/C: 117 % of control
endpoint: survival time, mean or median, dose: 750.0 mg/kg/injection, schedule: Q01DX Z (ip), vehicle: saline
  T/C: 111 % of control
endpoint: survival time, mean or median, dose: 800.0 mg/kg/injection, schedule: Q01DX010 (ip), vehicle: saline
  T/C: 105 % of control

## CCOC(N)=O
endpoint: survival time, mean or median, dose: 125.0 mg/kg/injection, schedule: Q01DX010 (ip), vehicle: saline
  T/C: 110 % of control and 94 % of control
endpoint: survival time, mean or median, dose: 250.0 mg/kg/injection, schedule: Q01DX010 (ip), vehicle: saline
  T/C: 94 % of control
endpoint: survival time, mean or median, dose: 500.0 mg/kg/injection, schedule: Q01DX010 (ip), vehicle: saline
  T/C: 94 % of control

## CN(C)c1nc(N(C)C)nc(N(C)C)n1
endpoint: survival time, mean or median, dose: 75.0 mg/kg/injection, schedule: Q01DX010 (ip), vehicle: saline
  T/C: 90 % of control
[6]
  T/C: 97 % of control

## CC(=O)N(C)C
endpoint: survival time, mean or median, dose: 31.0 mg/kg/injection, schedule: Q01DX Z (ip), vehicle: saline
  T/C: 103 % of control
endpoint: survival time, mean or median, dose: 125.0 mg/kg/injection, schedule: Q01DX Z (ip), vehicle: saline
  T/C: 100 % of control
endpoint: survival time, mean or median, dose: 250.0 mg/kg/injection, schedule: Q01DX Z (ip), vehicle: saline
  T/C: 93 % of control
endpoint: survival time, mean or median, dose: 500.0 mg/kg/injection, schedule: Q01DX Z (ip), vehicle: saline
  T/C: 88 % of control
endpoint: survival time, mean or median, dose: 2000.0 mg/kg/injection, schedule: Q01DX Z (ip), vehicle: saline
  T/C: 88 % of control

## CN(N=O)C(=O)NC(C=O)C(O)C(O)C(O)CO (stereo not drawn)
endpoint: survival time, mean or median, dose: 50.0 mg/kg/injection, schedule: Q01DX Z (ip), vehicle: saline
  T/C: 111 % of control
endpoint: survival time, mean or median, dose: 100.0 mg/kg/injection, schedule: Q01DX Z (ip), vehicle: saline
  T/C: 122 % of control

## NC(Cc1ccc(N(CCCl)CCCl)cc1)C(=O)O (stereo not drawn)
endpoint: survival time, mean or median, dose: 0.31 mg/kg/injection, schedule: Q01DX Z (ip), vehicle: carboxymethylcellulose (CMC)
  T/C: 90 % of control
endpoint: survival time, mean or median, dose: 0.63 mg/kg/injection, schedule: Q01DX Z (ip), vehicle: carboxymethylcellulose (CMC)
  T/C: 111 % of control
endpoint: survival time, mean or median, dose: 1.25 mg/kg/injection, schedule: Q01DX010 (ip), vehicle: saline
  T/C: 112 % of control
endpoint: survival time, mean or median, dose: 1.25 mg/kg/injection, schedule: Q01DX Z (ip), vehicle: carboxymethylcellulose (CMC)
  T/C: 110 % of control
[1]
  T/C: 172 % of control
endpoint: survival time, mean or median, dose: 2.5 mg/kg/injection, schedule: Q01DX Z (ip), vehicle: carboxymethylcellulose (CMC)
  T/C: 105 % of control
[2]
  T/C: 188 % of control
endpoint: survival time, mean or median, dose: 5.0 mg/kg/injection, schedule: Q01DX010 (ip), vehicle: saline
  T/C: 150 % of control
[4]
  T/C: 97 % of control
endpoint: survival time, mean or median, dose: 10.0 mg/kg/injection, schedule: Q01DX010 (ip), vehicle: saline
  T/C: 187 % of control
[5]
  T/C: 97 % of control
[3]
  T/C: 88 % of control

## CN(Cc1cnc2nc(N)nc(N)c2n1)c1ccc(C(=O)N[C@@H](CCC(=O)O)C(=O)O)cc1
endpoint: median survival time, dose: 0.38 mg/kg/injection, schedule: Q01DX009 (ip), vehicle: sodium bicarbonate
  T/C: 183 % of control
endpoint: median survival time, dose: 0.75 mg/kg/injection, schedule: Q01DX009 (ip), vehicle: sodium bicarbonate
  T/C: 191 % of control
endpoint: median survival time, dose: 1.5 mg/kg/injection, schedule: Q01DX009 (ip), vehicle: sodium bicarbonate
  T/C: 220 % of control
endpoint: median survival time, dose: 3.0 mg/kg/injection, schedule: Q01DX009 (ip), vehicle: sodium bicarbonate
  T/C: 91 % of control
endpoint: median survival time, dose: 6.0 mg/kg/injection, schedule: Q01DX009 (ip), vehicle: sodium bicarbonate
  T/C: 154 % of control
endpoint: survival time, mean or median, dose: 0.31 mg/kg/injection, schedule: Q01DX Z (ip), vehicle: other
  T/C: 123 % of control
endpoint: survival time, mean or median, dose: 0.38 mg/kg/injection, schedule: Q01DX010 (ip), vehicle: other
  T/C: 162 % of control and 167 % of control and 193 % of control
endpoint: survival time, mean or median, dose: 0.62 mg/kg/injection, schedule: Q01DX Z (ip), vehicle: other
  T/C: 189 % of control and 222 % of control
endpoint: survival time, mean or median, dose: 0.75 mg/kg/injection, schedule: Q01DX010 (ip), vehicle: other
  T/C: 176 % of control and 228 % of control and 235 % of control
endpoint: survival time, mean or median, dose: 1.25 mg/kg/injection, schedule: Q01DX Z (ip), vehicle: other
  T/C: 219 % of control and 256 % of control and 261 % of control
endpoint: survival time, mean or median, dose: 1.5 mg/kg/injection, schedule: Q01DX010 (ip), vehicle: other
  T/C: 229 % of control and 230 % of control (2×)
endpoint: survival time, mean or median, dose: 1.5 mg/kg/injection, schedule: Q01DX Z (ip), vehicle: other
  T/C: 158 % of control
endpoint: survival time, mean or median, dose: 2.5 mg/kg/injection, schedule: Q01DX Z (ip), vehicle: other
  T/C: 205 % of control and 244 % of control
endpoint: survival time, mean or median, dose: 3.0 mg/kg/injection, schedule: Q01DX010 (ip), vehicle: other
  T/C: 186 % of control
endpoint: survival time, mean or median, dose: 5.0 mg/kg/injection, schedule: Q01DX Z (ip), vehicle: other
  T/C: 116 % of control
